Experiments:
[1] = test system: EGFR expressing cells (HeLa and A431); conditions: summary in description
[2] = Critical micellar concentration (CMC) by ANS fluorescence; format: physicochemical
Description: The critical micellar concentration (CMC) of saponins derived from Saponaria officinalis (SO) (Table A7) and derived from Quillaja saponaria (QS) (Table A8, and Table A9) was determined by the method of DeVendittis et al. (A fluorimetric method for the estimation of the critical micelle concentration of surfactants, Analytical Biochemistry, Volume 115, Issue 2, August 1981, Pages 278-286) as follows:
(§1) The emission spectrum of 8-Anilinonaphthalene-1-sulfonic acid (ANS) in either purified water (MQ) or PBS (Dulbecco's PBS+/+) was determined at dry weight concentrations of saponins ranging from 1 to 1400 pM to cover the range below and above the CMC. Above the CMC, the fluorescence yield of ANS increases and the wavelength of maximum emission decreases due to portioning of the fluorescent dye into micelles. Fluorescence yields were recorded on a Fluoroskan Ascent FL (Thermo Scientific) at an excitation wavelength of 355 nm, and an emission wavelength of 460 nm. 6 μg at a concentration of 75.86 pM of ANS were used per sample and measurement.
The critical micellar concentration (CMC) of saponins was determined by the method of DeVendittis et al. (A fluorimetric method for the estimation of the critical micelle concentration of surfactants, Analytical Biochemistry, Volume 115, Issue 2, August 1981, Pages 278-286) as follows:
as §1, with “μM” for “pM”

HeLa (EGFR+) cells = experiment: Saponin titration in presence and absence of […] EGFdianthin, cell viability; format: cell-based; conditions: in absence of EGFdianthin, read-out: General toxicity (IC50 / highest concentration)
Description: To extend this test, saponins from other sources were analyzed. A saponin purified from a root extract of Gypsophila elegans M.Bieb. […] FIG. 63C).

HeLa cells = experiment: Pilot cell-based bioassay: 10 μg/ml saponin with or without 1.5 pM dianthin-EGF, 72 h, relative cell viability; set-up: key to Cell killing activity (+ or −): Cell killing activity (+ or −); Cell killing activity (+ or −)
Description: HeLa cells were incubated for 72 h with the following constructs and cell viability before and after the 72 h-incubation was assessed. In the experiments, cells were exposed to 1.5 pM dianthin-EGF conjugate. A negative control were cells incubated with buffer vehicle and 10 microgram/ml saponin, without dianthin-EGF. Cell viability was set to 100% for the control in which both saponin and EGF-dianthin were omitted. […] Cell viability after 72 h was essentially 0%. For the chemically modified saponin variants, 10 microgram/ml saponin was tested in combination with 1.5 pM dianthin-EGF.

A431 (EGFR++) cells = experiment: Saponin derivative titration in presence and absence of […] EGFdianthin, cell viability; format: cell-based; conditions: A431; without EGFdianthin; read-out: Toxicity as single compound

Compound | Endosomal escape enhancing activity (enhancement of cytotoxicity of effector conjugate) [1] | CMC compared to corresponding underivatised saponin [2] | also measured
CC(=O)OC1C(C)OC(OC2C(C)OC(OC(=O)C34CCC(C)(C)CC3C3=CCC5C6(C)CCC(OC7OC(C(=O)NC(C)(CO)CO)C(O)C(OC8OCC(O)C(O)C8O)C7OC7OC(CO)C(O)C(O)C7O)C(C)(C=NNC(=O)CCCCCN7C(=O)C=CC7=O)C6CCC5(C)C3(C)CC4O)C(OC3OC(C)C(OC4OCC(O)C(OC5OC(CO)C(O)C(O)C5O)C4O)C(O)C3O)C2O)C(O)C1OC1OCC(O)C(O)C1O (stereo not shown) [Molecule 14] | have the capacity to enhance the cytotoxic effect |  | 
CC(=O)OC1C(C)OC(OC2C(C)OC(OC(=O)[C@]34CCC(C)(C)CC3C3=CCC5[C@@]6(C)CC[C@H](OC7OC(C(=O)O)C(O)C(OC8OCC(O)C(O)C8O)C7OC7OC(CO)C(O)C(O)C7O)[C@@](C)(CO)C6CC[C@@]5(C)[C@]3(C)C[C@H]4O)C(OC3OC(C)C(OC4OCC(O)C(OC5OC(CO)C(O)C(O)C5O)C4O)C(O)C3O)C2O)C(O)C1OC1OCC(O)C(O)C1O (stereo partly shown) [Molecule 6] | have the capacity to enhance the cytotoxic effect | increased CMC | 
CC(=O)OC1C(C)OC(OC2C(C)OC(OC(=O)[C@]34CCC(C)(C)CC3C3=CCC5[C@@]6(C)CC[C@H](OC7OC(C(=O)NC(C)(CO)CO)C(O)C(OC8OCC(O)C(O)C8O)C7OC7OC(CO)C(O)C(O)C7O)[C@@](C)(CO)C6CC[C@@]5(C)[C@]3(C)C[C@H]4O)C(OC3OC(C)C(OC4OCC(O)C(OC5OC(CO)C(O)C(O)C5O)C4O)C(O)C3O)C2O)C(O)C1OC1OCC(O)C(O)C1O (stereo partly shown) [Molecule 9] | have the capacity to enhance the cytotoxic effect |  | 
CC(=O)OC1C(C)OC(OC2C(C)OC(OC(=O)[C@]34CCC(C)(C)CC3C3=CCC5[C@@]6(C)CC[C@H](OC7OC(C(=O)NCCN8C(=O)C=CC8=O)C(O)C(OC8OCC(O)C(O)C8O)C7OC7OC(CO)C(O)C(O)C7O)[C@@](C)(CO)C6CC[C@@]5(C)[C@]3(C)C[C@H]4O)C(OC3OC(C)C(OC4OCC(O)C(OC5OC(CO)C(O)C(O)C5O)C4O)C(O)C3O)C2O)C(O)C1OC1OCC(O)C(O)C1O (stereo partly shown) [Molecule 20] | have the capacity to enhance the cytotoxic effect |  | 
CC1OC(OC2C(C)OC(OC(=O)[C@]34CCC(C)(C)CC3C3=CCC5[C@@]6(C)CC[C@H](OC7OC(C(=O)NCCN8C(=O)C=CC8=O)C(O)C(OC8OCC(O)C(O)C8O)C7OC7OC(CO)C(O)C(O)C7O)[C@@](C)(C=O)C6CC[C@@]5(C)[C@]3(C)C[C@H]4O)C(OC3OC(C)C(OC4OCC(O)C(OC5OC(CO)C(O)C(O)C5O)C4O)C(O)C3O)C2O)C(O)C(OC2OCC(O)C(O)C2O)C1O (stereo partly shown) [Molecule 19] | display activity |  | 
CC1OC(OC2C(C)OC(OC(=O)[C@]34CCC(C)(C)CC3C3=CCC5[C@@]6(C)CC[C@H](OC7OC(C(=O)O)C(O)C(OC8OCC(O)C(O)C8O)C7OC7OC(CO)C(O)C(O)C7O)[C@@](C)(C=O)C6CC[C@@]5(C)[C@]3(C)C[C@H]4O)C(OC3OC(C)C(OC4OCC(O)C(OC5OC(CO)C(O)C(O)C5O)C4O)C(O)C3O)C2O)C(O)C(OC2OCC(O)C(O)C2O)C1O (stereo partly shown) [Molecule 8] | display activity | increased CMC | 
CC(=O)OC1C(C)OC(OC2C(C)OC(OC(=O)C34CCC(C)(C)CC3C3=CCC5C6(C)CCC(OC7OC(C(=O)O)C(O)C(OC8OCC(O)C(O)C8O)C7OC7OC(CO)C(O)C(O)C7O)C(C)(C=NNC(=O)CCOCCOCCOCCOCCN=[N+]=[N-])C6CCC5(C)C3(C)CC4O)C(OC3OC(C)C(OC4OCC(O)C(OC5OC(CO)C(O)C(O)C5O)C4O)C(O)C3O)C2O)C(O)C1OC1OCC(O)C(O)C1O (stereo not shown) |  |  | IC50 (HeLa (EGFR+) cells): > 10 µM; Cell killing activity (+ or −) (HeLa cells; 10 μg/ml SO1861 or SO1861-derivative + […] EGFdianthin): +; Cell killing activity (+ or −) (HeLa cells; 10 μg/ml SO1861 or SO1861-derivative alone): −; IC50 (A431 (EGFR++) cells): > 10 µM
CC1OC(OC2C(C)OC(OC(=O)[C@]34CCC(C)(C)CC3C3=CCC5[C@@]6(C)CC[C@H](OC7OC(C(=O)O)C(O)C(OC8OCC(O)C(O)C8O)C7OC7OC(CO)C(O)C(O)C7O)[C@@](C)(CO)C6CC[C@@]5(C)[C@]3(C)C[C@H]4O)C(OC3OC(C)C(OC4OCC(O)C(OC5OC(CO)C(O)C(O)C5O)C4O)C(O)C3O)C2O)C(O)C(OC2OCC(O)C(O)C2O)C1O (stereo partly shown) [Molecule 10] | have the capacity to enhance the cytotoxic effect | increased CMC | 
CC(=O)OC1C(C)OC(OC2C(C)OC(OC(=O)[C@]34CCC(C)(C)CC3C3=CCC5[C@@]6(C)CC[C@H](OC7OC(C(=O)NCCN8C(=O)C=CC8=O)C(O)C(OC8OCC(O)C(O)C8O)C7OC7OC(CO)C(O)C(O)C7O)[C@@](C)(C=O)C6CC[C@@]5(C)[C@]3(C)C[C@H]4O)C(OC3OC(C)C(OC4OCC(O)C(OC5OC(CO)C(O)C(O)C5O)C4O)C(O)C3O)C2O)C(O)C1OC1OCC(O)C(O)C1O (stereo partly shown) [Molecule 18] | display activity |  | 
CC1OC(OC2C(C)OC(OC(=O)C34CCC(C)(C)CC3C3=CCC5C6(C)CCC(OC7OC(C(=O)O)C(O)C(OC8OCC(O)C(O)C8O)C7OC7OC(CO)C(O)C(O)C7O)C(C)(C=NNC(=O)CCCCCN7C(=O)C=CC7=O)C6CCC5(C)C3(C)CC4O)C(OC3OC(C)C(OC4OCC(O)C(OC5OC(CO)C(O)C(O)C5O)C4O)C(O)C3O)C2O)C(O)C(OC2OCC(O)C(O)C2O)C1O (stereo not shown) [Molecule 15] | have the capacity to enhance the cytotoxic effect | increased CMC | 
CC1OC(OC2C(C)OC(OC(=O)[C@]34CCC(C)(C)CC3C3=CCC5[C@@]6(C)CC[C@H](OC7OC(C(=O)NC(C)(CO)CO)C(O)C(OC8OCC(O)C(O)C8O)C7OC7OC(CO)C(O)C(O)C7O)[C@@](C)(C=O)C6CC[C@@]5(C)[C@]3(C)C[C@H]4O)C(OC3OC(C)C(OC4OCC(O)C(OC5OC(CO)C(O)C(O)C5O)C4O)C(O)C3O)C2O)C(O)C(OC2OCC(O)C(O)C2O)C1O (stereo partly shown) [Molecule 11] | display activity |  | 
CC(=O)OC1C(C)OC(OC2C(C)OC(OC(=O)[C@]34CCC(C)(C)CC3C3=CCC5[C@@]6(C)CC[C@H](OC7OC(C(=O)NC(C)(CO)CO)C(O)C(OC8OCC(O)C(O)C8O)C7OC7OC(CO)C(O)C(O)C7O)[C@@](C)(C=O)C6CC[C@@]5(C)[C@]3(C)C[C@H]4O)C(OC3OC(C)C(OC4OCC(O)C(OC5OC(CO)C(O)C(O)C5O)C4O)C(O)C3O)C2O)C(O)C1OC1OCC(O)C(O)C1O (stereo partly shown) [Molecule 3A] | display activity |  | 
